Data as given in patent US20210038559A1, “CANNABINOIDS AND DERIVATIVES FOR PROMOTING IMMUNOGENICITY OF TUMOR AND INFECTED CELLS” (priority 2018, published 2021).
Counter-ions that a name gives are not always drawn.

tested on: MHC-I expression by COLO 205 cells; test: cells; format: cell-based, human; conditions: not given
Experimental: A panel of synthetic cannabinoids (Cayman Chemical, #9002891) was tested for MHC class I-inducing capability in COLO 205 cells as described above. COLO 205 cells were treated with the compounds at a concentration of 35 μM and evaluated for cell surface MHC class I expression after 48 hours. Cells were harvested, stained with MHC-I mAb W6/32 (Thermo Fisher). MHC-I expression was determined by flow cytometry.

Compared with `CCCn1cc(C(=O)c2cccc3ccccc23)c2ccccc21` [Example 65, 1-naphthalenyl(1-propyl-1H-indol-3-yl)-methanone], `CCCCCn1cc(C(=O)c2cc(C)cc3ccccc23)c2ccccc21` [Example 219, (3-methylnaphthalen-1-y1)(1-pentyl-1H-indol-3-yl)methanone] is lower in “Induction Fold” value: 2.77 Fold for the first, 1.78 Fold for the second.

Going from `CCCCCn1cc(C(=O)c2cccc3ccccc23)cc1-c1ccccc1F` [Example 85, [5-(2-fluorophenyl)-1-pentyl-1H-pyrrol-3-yl]-1-naphthalenyl-methanone] to `CCCCCn1cc(C(=O)Cc2cccc(OC)c2)c2ccccc21` [Example 28, 2-(3-methoxyphenyl)-1-(1-pentyl-1H-indol-3-y1)-ethanone], the “Induction Fold” value rises from 2.52 Fold to 3.42 Fold.

`CCC(F)CCn1nc(C(=O)N[C@H](C(=O)OC)C(C)C)c2ccccc21` (stereo partly shown) [Example 210, methyl (1-(3-fluoropentyl)-1H-indazole-3-carbonyl)-1-valinate] was tested, and the “Induction Fold” value was 1.84 Fold.

same assay, conditions: Homo sapiens, COLO 205, 48 h, MHC-I expression, COLO 205 cells, compounds at 35 μM, 48 hours, flow cytometry (W6/32); read-out: Induction Fold

Going from `CCCCCn1cc(C(=O)Cc2ccccc2OC)c2ccccc21` [Example 106, 1-(1-pentyl-1H-indol-3-yl)-2-(2-methoxyphenyl)-ethanone] to `CCCCCn1cc(C(=O)c2cccc3cccc(Cl)c23)c2ccccc21` [Example 50, (8-chloronaphthalen-1-yl)(1-pentyl-1H-indol-3-yl)methanone], the fold induction at 35 µM rises from 2.39 to 3.

Compared with `O=C(c1cccc2ccccc12)c1nc2ccccc2n1CCCCCF` [Example 40, (1-(5-fluoropentyl)-1H-benzo[d]imidazol-2-yl)(naphthalen-1-yl)methanone], `CCCCCn1c2ccccc2c2cc(C(=O)c3cccc4ccccc34)ccc21` [Example 315, naphthalen-1-yl(9-pentyl-9H-carbazol-3-yl)methanone] is lower in fold induction at 35 µM: 3.14 for the first, 1.32 for the second.

First: CCC(C)n1cc(C(=O)c2cccc3ccccc23)c2ccccc21 (stereo not shown) [Example 127, (1-(sec-butyl)-1H-indol-3-yl)(naphthalen-1-yl)methanone]
Second: CCCC(C)n1cc(C(=O)c2cccc3ccccc23)c2ccccc21 (stereo not shown) [Example 187, naphthalen-1-yl(1-(pentan-2-yl)-1H-indol-3-yl)methanone]
The fold induction at 35 µM of the first is higher: 2.29 for the first, 1.9 for the second.

Compared with `CCCCCCC(C)(C)c1ccc([C@@H]2C[C@@H](O)CC[C@H]2CCCO)c(O)c1` (relative stereo) [Example 375, rel-2-((1R,2R,5S)-5-hydroxy-2-(3-hydroxypropyl)cyclohexyl)-5-(2-methyloctan-2-yl)phenol], `CCCCCCc1ccc(O)cc1OCCCCCCCCCCC(=O)NC1CC1` [Example 302, N-cyclopropyl-11-(2-hexyl-5-hydroxyphenoxy)-undecanamide] is higher in fold induction at 35 µM: 0.33 for the first, 1.4 for the second.

First: O=C(Oc1ccc2ncccc2c1)c1cn(CC2CCCCC2)c2ccccc12 [Example 314, quinolin-6-yl 1-(cyclohexylmethyl)-1H-indole-3-carboxylate]
Second: CCC(F)CCn1cc(C(=O)Oc2cccc3cccnc23)c2ccccc21 (stereo not shown) [Example 45, quinolin-8-yl 1-(3-fluoropentyl)-1H-indole-3-carboxylate]
The fold induction at 35 µM of the first is lower: 1.32 for the first, 3.02 for the second.

Going from `CNCC(C)Cc1ccc2c(c1)OCO2` (stereo not drawn) [Example 348, N,β-dimethyl-1,3-benzodioxole-5-propanamine, monohydrochloride] to `CCCCCn1nc(C(=O)NC(C)(C(N)=O)C(C)C)c2ccccc21` (single isomer, unassigned) [Example 151, N-(1-amino-2,3-dimethyl-1-oxobutan-2-yl)-1-pentyl-1H-indazole-3-carboxamide], the fold induction at 35 µM rises from 1.11 to 2.13.

Going from `CCCCCc1cc(OC)c2cc(Cc3ccccc3OC)c(=O)oc2c1` [Example 200, 5-methoxy-3-[(2-methoxyphenyl)methyl]-7-pentyl-2H-1-benzopyran-2-one] to `CCCCCn1c(C)c(C(=O)c2ccc(C)c3ccccc23)c2ccccc21` [Example 326, (4-methyl-1-naphthalenyl)(2-methyl-1-pentyl-1H-indol-3-yl)-methanone], the fold induction at 35 µM falls from 1.88 to 1.25.

Compared with `O=C(Oc1cccc2cnccc12)c1cn(CCCCCF)c2ccccc12` [Example 105, isoquinolin-5-yl 1-(5-fluoropentyl)-1H-indole-3-carboxylate], `Cc1ccc(C(=O)c2cn(CCCCCCl)c3ccccc23)c2ccccc12` [Example 189, (1-(5-chloropentyl)-1H-indol-3-yl)(4-methylnaphthalen-1-yl)methanone] is lower in fold induction at 35 µM: 2.4 for the first, 1.89 for the second.

First: O=C(NCC1CC1)c1cn(CCCCCF)c2ccccc12 [Example 357, N-(cyclopropylmethyl)-1-(5-fluoropentyl)-1H-indole-3-carboxamide]
Second: CC(C)[C@H](NC(=O)c1cn(Cc2ccccc2)c2ccccc12)C(N)=O [Example 323, N-[(1S)-1-(aminocarbonyl)-2-methylpropyl]-1-(phenylmethyl)-1H-indole-3-carboxamide]
The fold induction at 35 µM of the first is lower: 1.03 for the first, 1.26 for the second.

Going from `COc1ccc(C(=O)c2c(C)n(CCN3CCOCC3)c3cc(Br)ccc23)cc1` [Example 310, [6-bromo-2-methyl-1-[2-(4-morpholinyl)ethyl]-1H-indol-3-yl](4-methoxyphenyl)-methanone] to `COc1ccc(C(=O)c2c(C)n(CCN3CCOCC3)c3ccccc23)cc1` [Example 308], the fold induction at 35 µM rises from 1.37 to 1.38.

Compared with `COC(=O)[C@@H](NC(=O)c1nn(Cc2ccc(F)cc2)c2ccccc12)C(C)C` [Example 15, N-[[1-[(4-fluorophenyl)methyl]-1H-indazol-3-yl]carbonyl]-L-valine, methyl ester], `CCC(C)(NC(=O)c1nn(Cc2ccc(F)cc2)c2ccccc12)C(N)=O` (single isomer, unassigned) [Example 287, N-(1-amino-2-methyl-1-oxobutan-2-yl)-1-(4-fluorobenzyl)-1H-indazole-3-carboxamide] is lower in fold induction at 35 µM: 4.2 for the first, 1.45 for the second.

First: O=C(Nc1cccc(-c2ccccc2)c1)OC1CCCCC1 [Example 226, N-[1,1′-biphenyl]-3-yl-carbamic acid, cyclohexyl ester]
Second: CN1CCCCC(n2cc(C(=O)C3C(C)(C)C3(C)C)c3ccccc32)C1 (stereo not shown) [Example 305, (1-(1-methylazepan-3-yl)-1H-indol-3-yl)(2,2,3,3-tetramethylcyclopropyl)methanone]
The fold induction at 35 µM of the first is higher: 1.74 for the first, 1.38 for the second.

`CCCc1ccc(C(=O)c2cn(CCC)c3ccccc23)c2ccccc12` [Example 78, (1-propyl-1H-indol-3-yl)(4-propyl-1-naphthalenyl)-methanone] showed a fold induction at 35 µM of 2.58.

same assay, conditions: Homo sapiens, COLO 205, 48 h, read-out: Induction Fold

For `CCCCCCC(C)(C)c1cc(OC)c(C2C=C(CO)C3CC2C3(C)C)c(OC)c1` (stereo not shown) [Example 304, 4-[4-(1,1-dimethylheptyl)-2,6-dimethoxyphenyl]-6,6-dimethyl-bicyclo[3.1.1]hept-2-ene-2-methanol], the fold induction at 35 µM was 1.39.

same assay, conditions: MHC-I expression, COLO 205 cells, compounds at 35 μM, 48 hours, flow cytometry (W6/32)

First: CCCCCN1C(=O)C(=NNC(=O)c2ccccc2)c2ccc(OC)cc21 [Example 266, 2Z-(1,2-dihydro-6-methoxy-2-oxo-1-pentyl-3H-indol-3-ylidene)hydrazide benzoic acid]
Second: O=C(NC12CC3CC(CC(C3)C1)C2)c1nn(Cc2ccc(F)cc2)c2ccccc12 [Example 117, N-((3s,5s,7s)-adamantan-1-yl)-1-(4-fluorobenzyl)-1H-indazole-3-carboxamide]
The “Induction Fold” value of the first is lower: 1.55 Fold for the first, 2.34 Fold for the second.

In the case of `CCCCCCCC/C=C\CCCCCCCC(=O)N[C@H](C)CO` [Example 242], the “Induction Fold” value is reported as 1.67 Fold.
